The target of assay [1] is T1, EHD2 (Mus musculus, UniProt Q8BH64).
T1 construct: Mouse EHD2 full-length protein and all mutants were expressed as N-terminal His-fusions followed by a PreScission cleavage site; His (N, cleaved yes); made in house; host or cells: Escherichia coli BL21 DE3 Rosetta
T1 sequence (Q8BH64 1-543): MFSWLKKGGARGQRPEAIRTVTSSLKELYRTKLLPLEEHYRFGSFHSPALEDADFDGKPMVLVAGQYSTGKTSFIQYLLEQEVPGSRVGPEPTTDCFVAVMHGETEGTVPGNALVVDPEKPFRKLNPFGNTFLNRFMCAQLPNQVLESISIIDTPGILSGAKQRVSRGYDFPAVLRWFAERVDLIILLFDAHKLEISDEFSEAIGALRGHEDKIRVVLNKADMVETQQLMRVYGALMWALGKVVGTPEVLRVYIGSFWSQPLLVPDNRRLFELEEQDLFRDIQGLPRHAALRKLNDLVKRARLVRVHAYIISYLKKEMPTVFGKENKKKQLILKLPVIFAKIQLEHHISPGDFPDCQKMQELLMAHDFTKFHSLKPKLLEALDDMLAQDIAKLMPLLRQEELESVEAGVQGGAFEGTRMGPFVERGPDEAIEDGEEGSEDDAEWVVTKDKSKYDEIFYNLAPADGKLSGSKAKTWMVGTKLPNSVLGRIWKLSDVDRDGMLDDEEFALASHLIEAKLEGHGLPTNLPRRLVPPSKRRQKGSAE
Description: ITC nucleotide binding to EHD2. Conditions: ITC at 10° C. The protocol:
(§1) Amino acid numbering corresponds to mouse EHD2. b, EHD2 binds to adenine nucleotides, as determined by ITC. For clarity, ΔΔH=ΔHn−ΔH1 is plotted. […] Images were acquired close to the basal cell surface. f, Nucleotide hydrolysis was measured by HPLC in the absence (empty symbols) or presence of Folch liposomes (filled symbols). Data represent mean and standard deviation for two (intrinisic reactions) or three (stimulated reactions) independent experiments.
(§2) ITC measurements were performed at 10° C. in 20 mM HEPES (pH 7.5), 300 mM NaCl, 2 mM MgCl2. Liposome binding assays were performed as described previously (www.endocytosis.org). Multiple turnover ATPase assays were performed in 20 mM HEPES (pH 7.5), 135 mM NaCl, 15 mM KCl, 1 mM MgCl2 at 30° C. with 10 μM EHD2 (or mutants) as enzyme and 100 μM ATP as substrate, in the absence or presence of 1 mg/ml Folch liposomes (Sigma-Aldrich).
Mouse full-length EHD2 was expressed in bacteria and purified to homogeneity (FIG. 5). The purified protein was nucleotide-free as judged by HPLC analysis. […] It was previously reported that EHDs—despite having a predicted G-domain—bind to adenine nucleotides^15. […] We still refer to this domain as a G-domain because the sequence and fold (see below) are clearly similar to other G-domains. […] Using synthetic liposomes containing various different phosphatidyl-inositols (PI) (FIG. 1c) we observed best binding to liposomes containing PI(4,5)bisphosphate (PIP2).

In assay [2] the target is T2, EHD2(T72A) (Mus musculus, UniProt Q8BH64, T72A).
T2 construct: Mouse EHD2 full-length protein and all mutants were expressed as N-terminal His-fusions followed by a PreScission cleavage site; His (N, cleaved yes); made in house; host or cells: Escherichia coli BL21 DE3 Rosetta
T2 sequence (Q8BH64 1-543 T72A): T1 sequence (Q8BH64 1-543) with T72A
Description: ITC nucleotide binding to EHD2(T72A) P-loop mutant. Conditions: ITC at 10° C. How it is done: as §1, §2
Mouse full-length EHD2 was expressed in bacteria and purified to homogeneity (FIG. 5). The purified protein was nucleotide-free as judged by HPLC analysis. […] It was previously reported that EHDs—despite having a predicted G-domain—bind to adenine nucleotides^15. […] We still refer to this domain as a G-domain because the sequence and fold (see below) are clearly similar to other G-domains. […]

In assay [3] the target is T3, T94A mutant of EHD2 (Mus musculus, UniProt Q8BH64, T94A).
T3 construct: Mouse EHD2 full-length protein and all mutants were expressed as N-terminal His-fusions followed by a PreScission cleavage site; His (N, cleaved yes); made in house; host or cells: Escherichia coli BL21 DE3 Rosetta
T3 sequence (Q8BH64 1-543 T94A): T1 sequence (Q8BH64 1-543) with T94A
Description: ITC nucleotide binding to EHD2 T94A mutant. The conditions noted are these: ITC as in FIG. 1b. The protocol:
Nucleotide hydrolysis was measured as described in FIG. 1f. In vitro tubulation activity of PS liposomes was analysed as described in FIG. 1d. f, EGFP-tagged mutants were over-expressed in HeLa cells. […] For each construct, three independent experiments with ≈50 cells/experiments were analysed.
as §2
In small GTPases, the role of positioning the water molecule is assigned to a catalytic glutamine from switch II^26. We studied the role of ATP hydrolysis to gain insights into the function of EHD2 in vivo. […] To confirm the role of ATP hydrolysis in EHD function we re-introduced a catalytic glutamine in the active site, at the position normally found for small GTPases (I157Q). […] Many of these puncta were highly mobile as determined by live-cell microscopy.

Substitutions are numbered along the chain they refer to. Entries after “also recorded” stand apart in the source; their conditions may differ.

These results are taken from US20120214173A1, “Methods of Identifying Modulators of an Ehd Polypeptide” (priority 2007, published 2012).

Take `Nc1ncnc2c1ncn2[C@@H]1O[C@H](COP(=O)(O)OP(=O)(O)OP(O)(O)=S)[C@@H](O)[C@H]1O` [ATP-γ-S]: the “n (fitted ITC value), nucleotide binding to EHD2” value in assay [1] was found to be 0.96. Besides, in assay [1] (20 mM HEPES (pH 7.5), 300 mM NaCl, 2 mM MgCl2, read-out: affinity to EHD2 determined by ITC), the Kd came to 13 ± 3 µM. Besides, in assay [2], the “binding to EHD2(T72A) by ITC” value is “no binding observed; also recorded: prevented binding”. Besides, the “affinity of the T94A mutant to ATP-γ-S by ITC” value in assay [3] is on record as “nearly wild-type affinity”.
